Measured values taken from patent US8673360B2, “Compositions that enable rapid-acting and highly absorptive intranasal administration” (Shin Nippon Biomedical Laboratories, Ltd., priority 2004, dated 2014).

Legend:
[1] = Intranasal administration of tropisetron in cynomolgus monkeys: plasma tropisetron by HPLC, against intravenous injection; format: in vivo
Description: A single dose of an intranasal delivery composition was nasally administered to cynomolgus monkeys (body weight: 4.3 to 7.2 kg). Each composition was encapsulated and administered nasally using a device for nasal administration (Bioactis Co. Ltd.).
27.5 mg of tropisetron hydrochloride (equivalent to 25 mg of tropisetron free base) (Sigma), which is an antiemetic agent, and 72.5 mg of crystalline cellulose (Asahi Kasei: Avicel™ PH-F20) were mixed thoroughly in a mortar. The obtained tropisetron composition was prepared and 4.4 mg tropisetron hydrochloride (equivalent to 4.0 mg of tropisetron free base) per head was administered nasally to male cynomolgus monkeys weighing from 6.3 to 7.2 kg (n=3).
The injection was given intravenously to male cynomolgus monkeys weighing 6.9 and 7.2 kg (n=2), at 0.22 mg tropisetron hydrochloride (equivalent to 0.20 mg of tropisetron free base) per kg weight.
The plasma concentration of tropisetron free base after administration was determined by the HPLC method.
The time course of plasma tropisetron concentration after intravenous injection was subjected to a 2-compartment model analysis using the linear least-square method. The area under the theoretical plasma concentration vs. time curve (AUC) was determined based on the theoretical plasma tropisetron concentration calculated.

[2] = Intranasal administration of oxycodone in cynomolgus monkeys: plasma oxycodone by HPLC, against subcutaneous injection

Row | SMILES | Time at which the maximum plasma concentration of tropisetron was achieved ([1]; intranasal, time course of average plasma concentrations) [min] | bioavailability ([1]; male, cynomolgus monkey, plasma, other: intranasal, nasal, 4 mg/body (0.59 mg/kg), compared with intravenous injection, read-out: BA (bioavailability) of tropisetron) [%] | Time at which the maximum plasma concentration of oxycodone was reached ([2]; intranasal, time course of plasma concentrations) [min] | bioavailability ([2]; male, cynomolgus, cynomolgus monkey, plasma, other: intranasal, […]) [%]
1 | CN1[C@@H]2CC[C@H]1C[C@@H](OC(=O)c1c[nH]c3ccccc13)C2 [tropisetron] | 5 | 73.4 |  | 
2 | COc1ccc2c3c1O[C@H]1C(=O)CC[C@@]4(O)[C@@H](C2)N(C)CC[C@]314 [oxycodone] |  |  | 20 | 71.7
